Data as given in patent US20260317272A1, “USE OF STROBILURIN TYPE COMPOUNDS FOR COMBATING PHYTOPATHOGENIC FUNGI CONTAINING AN AMINO ACID SUBSTITION F129L IN THE MITOCHONDRIAL CYTOCHROME B PROTEIN CONFERRING RESISTANCE TO QO INHIBITORS XVI” (priority 2023, published 2026).

How the values were obtained:
Phakopsora pachyrhizi [1] = assay: Use Example 5: protective control of soybean rust on soybeans (PHAKPA P9); format: in vivo; conditions: 16 ppm, 9 days before inoculation, F129L strain, up to 14 days, untreated 85
Experimental: (§1) The compound was dissolved in a mixture of acetone and/or dimethylsulfoxide and the wetting agent/emulsifier Wettol, which is based on ethoxylated alkylphenoles, in a ratio (volume) solvent-emulsifier of 99 to 1 to give a total volume of 5 ml. Subsequently, water was added to total volume of 100 ml. This stock solution was then diluted with the described solvent-emulsifier-water mixture to the final concentration given in the tables below.
Use Example 5. Protective Control of Soybean Rust on Soybeans Caused by Phakopsora pachyrhizi (PHAKPA P9)
Leaves of potted soybean seedlings were sprayed to run-off with the previously described spray solution, containing the concentration of active ingredient or their mixture as described below. The plants were allowed to air-dry. The trial plants were cultivated for 9 days in a greenhouse chamber at 23-27° C. and a relative humidity between 60 and 80%. Then the plants were inoculated with spores of Phakopsora pachyrhizi. The strain used contains the amino acid substitution F129L in the mitochondrial cytochrome b protein conferring resistance to Qo inhibitors. To ensure the success of the artificial inoculation, the plants were transferred to a humid chamber with a relative humidity of about 95% and 20 to 24° C. for 24 h. The trial plants were cultivated for up to 14 days in a greenhouse chamber at 23-27° C. and a relative humidity between 60 and 80%. The extent of fungal attack on the leaves was visually assessed as % diseased leaf area.

Phakopsora pachyrhizi [2] = assay: Use Example 2: curative control of soybean rust on soybeans (PHAKPA K2); format: in vivo; conditions: 16 ppm, F129L strain, up to 14 days, untreated 90
Experimental: as §1
Use Example 2. Curative Control of Soybean Rust on Soybeans Caused by Phakopsora pachyrhizi (PHAKPA K2)
Leaves of potted soybean seedlings were inoculated with spores of Phakopsora pachyrhizi. The strain used contains the amino acid substitution F129L in the mitochondrial cytochrome b protein conferring resistance to Qo inhibitors. To ensure the success of the artificial inoculation, the plants were transferred to a humid chamber with a relative humidity of about 95% and 20 to 24° C. for 24 h. The next day the plants were cultivated for 1 day in a greenhouse chamber at 23-27° C. and a relative humidity between 60 and 80%. Then the plants were sprayed to run-off with the previously described spray solution, containing the concentration of active ingredient or their mixture as described below. The plants were allowed to air-dry. Then the trial plants were cultivated up to 14 days in a greenhouse chamber at 23-27° C. and a relative humidity between 60 and 80%. The extent of fungal attack on the leaves was visually assessed as % diseased leaf area.

Alternaria solani = assay: Use Example 1: preventative fungicidal control of early blight on tomatoes (ALTESO P1); format: in vivo; conditions: 63 ppm, tomato, treated 1 day before inoculation, F129L strain, assessed after 5 days, untreated 85
Experimental: as §1
Use Example 1. Preventative Fungicidal Control of Early Blight on Tomatoes (Alternaria solani) (ALTESO P1)
Young seedlings of tomato plants were grown in pots. These plants were sprayed to run-off with previously described spray solution, containing the concentration of active ingredient or mixture mentioned in the table below. The next day the treated plants were inoculated with an aqueous suspension of Alternaria solani. The strain used contains the amino acid substitution F129L in the mitochondrial cytochrome b protein conferring resistance to Qo inhibitors. Then the trial plants were immediately transferred to a humid chamber. After 5 days at 18 to 20° C. and a saturated relative humidity, the extent of fungal attack on the leaves was visually assessed as % diseased leaf area.

Puccinia triticina [3] = assay: Use Example 7: preventative control of brown rust on wheat (PUCCRT P10); format: in vivo, Puccinia triticina (syn. P. recondita); conditions: 16 ppm, ten days before inoculation, 6 days, untreated 80
Experimental: as §1
Use Example 7. Preventative Control of Brown Rust on Wheat Caused by Puccinia triticina (Syn. P. recondita) (PUCCRT P10)
The first two developed leaves of potted wheat seedling were sprayed to run-off with previously described spray solution, containing the concentration of active ingredient or their mixture as described below. Ten days later the plants were inoculated with spores of Puccinia triticina. To ensure the success of the artificial inoculation, the plants were transferred to a humid chamber without light and a relative humidity of 95 to 99% and 20 to 24° C. for 24 h. Then the trial plants were cultivated for 6 days in a greenhouse chamber at 20-24° C. and a relative humidity between 65 and 70%. The extent of fungal attack on the leaves was visually assessed as % diseased leaf area.

Puccinia striiformis = assay: Use Example 9: curative control of wheat stripe rust on wheat (PUCCST K4); format: in vivo; conditions: 16 ppm, untreated 90%
Experimental: as §1
Use Example 9. Curative Control of Wheat Stripe Rust on Wheat Caused by Puccinia striiformis (PUCCST K4)
The first two developed leaves of potted wheat seedling were inoculated with spores of Puccinia striiformis. To ensure the success of the artificial inoculation, the plants were transferred to a chamber without light and a temperature of 5° C. for 24 h. Then the trial plants were cultivated for 3 days in a greenhouse chamber at 16° C. and a relative humidity of minimum 75%. The plants were sprayed to run-off with the previously described spray solution, containing the concentration of active ingredient or their mixture as described below. The plants were allowed to air-dry. Then the trial plants were cultivated for up to 12 days in a greenhouse chamber at 16° C. and a relative humidity of minimum 75%. The extent of fungal attack on the leaves was visually assessed as % diseased leaf area.

Puccinia triticina [4] = assay: Use Example 15: activity against Puccinia triticina (PUCCRT, brown rust on wheat) in field; format: in vivo; conditions: for Efficacy, %: Abbot's formula, B23; for infection rate, %: B23 (23 days after second treatment), flag leaf
Experimental: Use Example 15. Activity Against Puccinia triticina (PUCCRT, Brown Rust on Wheat) in Field
Trials were conducted under field conditions in Spain. Spring wheat was planted and grown with adequate supply of water and nutrients. Two applications (A and B) of the test compounds were made at onset of disease (application A) and at second application at an interval of 22 days (application B). The spray solutions were prepared by mixing experimental formulations of the test compounds (50 g/L EC) in water, adding 124 g/ha Plurafac LF301 and Plurafac LF1312 (BASF, low-foaming non-ionic surfactants consisting of alkoxylated, predominantly unbranched fatty alcohols containing higher alkene oxides alongside ethylene oxide), respectively. The spray solutions were applied with 300 I/ha spray volume with a flat fan nozzle.
The infestation levels for brown rust (Puccinia triticina) were evaluated 23 days after the second fungicide treatment (B23), a mean value across the flag leaf level was calculated. In addition, efficacy was calculated using Abbot's formula as in use example 14.

[5] = Table 8, 75 g a.i./ha, untreated infection 75%
[6] = Table 8, 150 g a.i./ha, untreated infection 75%
[7] = Table 8, 75 g a.i./ha, untreated 75%
[8] = Table 8, 150 g a.i./ha, untreated 75%
[9] = Table 10, 75 g a.i./ha, untreated infection 50%
[10] = Table 10, 150 g a.i./ha, untreated infection 50%
[11] = Table 10, 75 g a.i./ha, untreated 50%
[12] = Table 10, 150 g a.i./ha, untreated 50%

SMILES | Diseased leaf area (%) (Phakopsora pachyrhizi [1]) | Diseased leaf area (%) (Phakopsora pachyrhizi [2]) | Diseased leaf area (%) (Alternaria solani) | Diseased leaf area (%) (Puccinia triticina [3]) | Diseased leaf area (%) (Puccinia striiformis) | Efficacy, % (Puccinia triticina [4]; [5]) | Efficacy, % (Puccinia triticina [4]; [6]) | infection rate, % (Puccinia triticina [4]; [7]) | infection rate, % (Puccinia triticina [4]; [8]) | Efficacy, % (Puccinia triticina [4]; [9]) | Efficacy, % (Puccinia triticina [4]; [10]) | infection rate, % (Puccinia triticina [4]; [11]) | infection rate, % (Puccinia triticina [4]; [12]) | Efficacy, % (Puccinia triticina [4]; Table 9, 75 g a.i./ha, untreated infection 74%) | Efficacy, % (Puccinia triticina [4]; Table 9, 150 g a.i./ha, untreated infection 74%) | infection rate, % (Puccinia triticina [4]; Table 9, 75 g a.i./ha, untreated 74%) | infection rate, % (Puccinia triticina [4]; Table 9, 150 g a.i./ha, untreated 74%)
CO/C=C(/C(=O)OC)c1cccc(C)c1CO/N=C(\COC)c1c(F)cc(F)cc1F [Compound 4, methyl (E)-3-methoxy-2-[2-[[(Z)-[2-methoxy-1-(2,4,6-trifluorophenyl)ethylidene]amino]oxymethyl]-3-methyl-phenyl]prop-2-enoate] | 0% | 5% | 5% | 12% | 15% | 95% | 97% | 4% | 2% | – | – | – | – | – | – | – | –
CO/C=C(/C(=O)OC)c1cccc(C)c1CO/N=C(\COC)c1ccc(Cl)cc1Cl [Compound 6, methyl (E)-2-[2-[[(Z)-[1-(2,4-dichlorophenyl)-2-methoxy-ethylidene]amino]oxymethyl]-3-methyl-phenyl]-3-methoxy-prop-2-enoate] | 9% | – | – | 5% | – | – | – | – | – | 40% | 50% | 30% | 25% | – | – | – | –
CNC(=O)/C(=N/OC)c1cccc(C)c1CO/N=C(\COC)c1ccc(F)c(F)c1 [Compound 5, (2E)-2-[2-[[(Z)-[1-(3,4-difluorophenyl)-2-methoxy-ethylidene]amino]oxymethyl]-3-methylphenyl]-2-methoxyimino-N-methyl-acetamide] | 1% | 6% | 3% | 12% | 1% | – | – | – | – | 84% | 92% | 8% | 4% | – | – | – | –
COC/C(=N\OCc1c(C)cccc1/C(=N\OC)C(=O)OC)c1c(F)cc(F)cc1F [Compound 2, methyl (2E)-2-methoxyimino-2-[2-[[(Z)-[2-methoxy-1-(2,4,6-trifluorophenyl)ethylidene]amino]oxymethyl]-3-methyl-phenyl]acetate] | 2% | 2% | 13% | – | – | 23% | 40% | 58% | 45% | – | – | – | – | – | – | – | –
CNC(=O)/C(=N/OC)c1cccc(C)c1CO/N=C(\COC)c1c(F)cc(OC)cc1F [Compound 7, (2E)-2-[2-[[(Z)-[1-(2,6-difluoro-4-methoxy-phenyl)-2-methoxy-ethylidene]amino]oxymethyl]-3-methyl-phenyl]-2-methoxyimino-N-methyl-acetamide] | 1% | 4% | – | 4% | 0% | 92% | 97% | 6% | 2% | – | – | – | – | – | – | – | –
CO/C=C(/C(=O)OC)c1cccc(C)c1CO/N=C(\COC)c1ccc(F)cc1Cl [Compound 3] | 0% | – | 5% | – | 7% | – | – | – | – | – | – | – | – | 66% | 73% | 25% | 20%
CNC(=O)/C(=N/OC)c1cccc(C)c1CO/N=C(\COC)c1c(F)cc(F)cc1F [Compound 1, (2E)-2-methoxyimino-2-[2-[[(Z)-[2-methoxy-1-(2,4,6-trifluorophenyl)ethylidene]amino]oxymethyl]-3-methyl-phenyl]-N-methyl-acetamide] | 0% | 0% | 11% | – | 0% | 60% | 89% | 30% | 8% | – | – | – | – | – | – | – | –
